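All cell lines were grown in 96-well plates and treated with compound for 48 hours. GI50: concentration for 50% inhibition of growth. TGI: concentration producing complete growth inhibition.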
Experiments:
Experiment in all cases: NCI anticancer screen, dose series, 48 h
NCI-H23 lung = tested on: NCI-H23 lung
SK-OV-3 ovarian = tested on: SK-OV-3 ovarian
IGROV1 ovarian = tested on: IGROV1 ovarian
EKVX NSCLC = tested on: EKVX NSCLC
SN12C renal = tested on: SN12C renal

Row | Compound | TGI (NCI-H23 lung) [µM] | TGI (SK-OV-3 ovarian) [µM] | TGI (IGROV1 ovarian) [µM] | TGI (EKVX NSCLC) [µM] | TGI (SN12C renal) [µM] | GI50 (SN12C renal) [µM]
1 | CC(C)=C[C@@H]1C[C@H](C)c2c(O)cc(C)c3c2C1=C(C)C(=O)C3=O | 32.5 | 30.9 | 35.2 | 33 | 28.3 | 
2 | COc1cc2nc(-c3ccccc3F)[nH]c(=O)c2cc1OC | > 100 | > 100 | > 100 | > 100 | > 100 | 
3 | O=C(Cc1ccccc1)NNc1nc(NNC(=O)c2ccncc2)nc(Nc2ccccc2)n1 |  | > 10 | > 10 | > 10 | > 10 | 
4 | NNc1ccccc1Cl | > 100 | > 100 | > 100 | > 100 | > 100 | 
5 | C[C@]12CC[C@H](O)C=C1CC[C@@H]1[C@@H]2CC[C@]2(C)C(=N/O)/C(=C/c3ccncc3)C[C@@H]12 | 63.7 | 34.9 | 81.6 | > 100 | 32.8 | 
6 | CC(C)(C)CC(C)(C)N=C(N)NO | > 100 | 99.1 | > 100 | > 100 | > 100 | 
7 | COC(=O)[C@@H]1C2OC(C)(C)OC2CN1C(=O)OCc1ccccc1 (some centres not stated) | > 100 | > 100 | > 100 | > 100 | > 100 | 
8 | O=C1c2cscc2C(=O)C1(O)O | 45.9 | > 100 | > 100 | > 100 | 36.3 | 
9 | CN1CCCC1=NC#N | > 100 | > 100 | > 100 | > 100 | > 100 | 
10 | CO[C@@H]1C=C[C@@]23c4cc5c(cc4C(O)N(CC2O)C3C1)OCO5 (some centres not stated) | 56.1 | > 100 | 68.9 | 33.3 | > 100 | 
11 | COc1ccc([C@H]2C=C(c3cc(F)c(Cl)cc3Cl)NC(=S)N2)cc1 | > 100 | > 100 | > 100 | > 100 | 57.1 | 
12 | O=C(Nc1nnc(-c2c(Cl)c(Cl)c(Cl)c(Cl)c2-c2nc3cc(C(=O)c4ccccc4)ccc3[nH]2)o1)c1ccccc1 | 54.2 | 52.2 | 42 | 38.7 | 31.3 | 
13 | COc1ccc2c(c1)CCCN1Cc3cc(OC)c(OC)cc3CC21 (configuration not stated) | > 100 | > 100 | > 100 | > 100 | > 100 | 
14 | N#Cc1c(N)c2c(c(-c3ccccc3)c1-c1ccccc1)C(=O)N(NC(=O)c1ccccc1)C2=O |  |  | > 100 | > 100 | > 100 | 
15 | Cc1cc(S(=O)(=O)n2ccnc2Oc2ccccc2)c(SSc2cc(Cl)c(C)cc2S(=O)(=O)n2ccnc2Oc2ccccc2)cc1Cl |  | > 100 | > 100 | > 100 | > 100 | 
16 | Cc1cc(C)n(-c2nc3ccccc3c(=O)n2-c2ccccc2)n1 | > 100 | > 100 | > 100 |  | > 100 | 

Row | Compound | TGI (NCI-H23 lung) [µM] | TGI (SK-OV-3 ovarian) [µM] | TGI (IGROV1 ovarian) [µM] | TGI (EKVX NSCLC) [µM] | TGI (SN12C renal) [µM] | GI50 (SN12C renal) [µM]
17 | COc1ccc(C2CC(=O)CC(c3ccc(OC)cc3)C23C(=O)NC(=S)NC3=O)cc1 (configuration not stated) | > 100 |  | > 100 | > 100 | > 100 | 
18 | CCN(CC)CCOC(=O)CCN1CC2CCC(CC2)C1 | > 100 | > 100 | > 100 | > 100 |  | 
19 | N#Cc1c(C#N)c(-c2ccco2)n(-c2ccccc2)c1N | > 100 | > 100 | > 100 | > 100 | > 100 | 
20 | Cn1c(=O)c2c(nc(N)n2C2OC(CO)C(O)C2O)n(C)c1=O (configuration not stated) | > 100 | > 100 | > 100 | > 100 | > 100 | 
21 | COc1ccc2oc(=O)c3c(c2c1C)OC(C)(C)C=C3 | > 100 | > 100 | > 100 | > 100 | > 100 | 
22 | Cc1cc(S(=O)(=O)NC2=NC(c3ccccc3)c3ccccc3N2)c(S)cc1Cl (configuration not stated) | > 100 | > 100 | > 100 | > 100 | > 100 | 
23 | Nc1ccc(Nc2c3ccccc3nc3ccccc23)cc1 | > 10 | > 10 | > 10 | > 10 | > 10 | 
24 | CN1C(=O)[C@@H]2N(CSC2(C)C)C1=S | > 100 | > 100 | > 100 | > 100 | > 100 | 
25 | COc1ccc(OC)c(C#Cc2ccc(OC)c(C(=O)NCCc3ccc(F)cc3)c2)c1 | > 100 |  | > 100 | > 100 | > 100 | > 100
26 | CC[C@H](C)C1=C(O)[N@+]2([O-])Oc3ccc(-c4c(O)c(O)c(-c5ccc(OC(C)=O)cc5)c(OC(C)=O)c4OC(C)=O)cc3O[C@]2([C@@H](C)CC)C(=O)N1O | > 50 | > 50 | 18.6 | > 50 | > 50 | 
27 | CC(C)c1c(O[Si](C(C)C)(C(C)C)C(C)C)c2c3c(ccc4c3c1OC4(C)C)C(C)CC2 (configuration not stated) | > 100 | > 100 | > 100 | > 100 | > 100 | 
28 | Cc1ccc(C(CC(=O)C(C)(C)CN2CCCCC2)SCCS(=O)(=O)O)cc1 (configuration not stated) | 86.5 | 91 | > 100 | 66.5 | 94.8 | 
29 | Cc1ccsc1C(=O)C(CC(=O)c1cccs1)c1ccsc1 (configuration not stated) | > 100 | > 100 | > 100 | > 100 | > 100 | 
30 | C/C1=C\[C@H](C)C[C@H](C)OC(=O)C[C@H](c2ccc(O)cc2)NC(=O)[C@H](Cc2ccc(O)c(Br)c2)N(C)C(=O)[C@H](C)NC(=O)[C@@H](C)C1 | > 25 | > 25 | > 25 | > 25 | > 25 | 
31 | COc1c(C)c(C/C=C(\C)CCCCO)c(OC)c(OC)c1OC | > 100 | > 100 | > 100 | > 100 | > 100 | 
32 | COc1ccccc1N1C(=O)CS(=O)(=O)C1c1cccc(Oc2ccccc2)c1 (configuration not stated) | 37.3 | 73.5 |  | 42.6 | 33.1 | 

Reference: PubChem BioAssay (NCI)
